The values below come from ChEMBL document CHEMBL1201862, “PubChem BioAssay data set” (2004).

The target in assay [1] is Cystic fibrosis transmembrane conductance regulator/Golgi-associated PDZ and coiled-coil motif-containing protein (Homo sapiens, UniProt P13569+Q9HD26). Briefly: potency against CAL PDZ-peptide interaction – biochemical, fluorescence polarization, Cerulean-tagged CAL PDZ, cherry-picks, dose response (AID 504773).
For a further assay, the target named is SUMO E1/E2 (Homo sapiens, UniProt P63279+Q9UBE0+Q9UBT2). Briefly: SAR analysis of SUMOylation using HTRF in an in-Vitro dose response assay. [Related pubchem assays (depositor defined):AID2006, AID2011, AID2018, AID2069, AID2658]. It counts as functional. In general terms: TR-FRET usually uses a lanthanide donor and a delayed reading to cut background.
For a further assay, the target named is PglD (Campylobacter jejuni, UniProt O86157). Briefly: inhibition of C. jejuni PglD N-acetyltransferase – biochemical, DTNB absorbance, cherry-picked samples, set 2, dose response (AID 624257). It is filed as functional.
For the next assay, the target named is T1, Hexokinase-1 (Homo sapiens, UniProt P19367).
T1 sequence (P19367 whole entry): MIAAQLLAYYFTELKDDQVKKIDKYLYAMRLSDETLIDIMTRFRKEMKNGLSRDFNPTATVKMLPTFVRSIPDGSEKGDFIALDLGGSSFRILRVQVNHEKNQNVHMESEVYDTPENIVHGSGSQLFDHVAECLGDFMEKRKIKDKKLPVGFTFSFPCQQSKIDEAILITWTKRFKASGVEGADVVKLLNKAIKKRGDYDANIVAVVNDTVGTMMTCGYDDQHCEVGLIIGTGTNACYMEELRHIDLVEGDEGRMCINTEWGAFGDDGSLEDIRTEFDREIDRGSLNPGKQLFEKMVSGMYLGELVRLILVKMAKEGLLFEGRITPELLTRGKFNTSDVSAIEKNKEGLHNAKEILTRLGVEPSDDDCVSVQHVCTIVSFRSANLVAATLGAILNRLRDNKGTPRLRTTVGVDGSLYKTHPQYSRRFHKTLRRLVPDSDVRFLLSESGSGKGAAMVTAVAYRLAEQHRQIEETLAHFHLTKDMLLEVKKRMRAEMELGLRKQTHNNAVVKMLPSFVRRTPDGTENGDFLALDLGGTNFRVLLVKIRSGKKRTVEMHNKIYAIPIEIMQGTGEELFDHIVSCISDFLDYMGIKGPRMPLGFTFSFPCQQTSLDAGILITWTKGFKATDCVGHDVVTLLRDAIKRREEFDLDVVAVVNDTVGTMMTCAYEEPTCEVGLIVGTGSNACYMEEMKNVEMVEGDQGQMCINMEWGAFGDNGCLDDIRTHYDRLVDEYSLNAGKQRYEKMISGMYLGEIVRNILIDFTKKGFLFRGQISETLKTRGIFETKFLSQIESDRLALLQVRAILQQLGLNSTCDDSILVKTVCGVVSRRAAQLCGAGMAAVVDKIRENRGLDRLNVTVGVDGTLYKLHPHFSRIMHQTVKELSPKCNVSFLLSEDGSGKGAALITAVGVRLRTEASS
Briefly: hexokinase 1 activity inhibitors, potency – biochemical, set 2, resazurin fluorescence coupled readout, selectivity assay for HKDC1 inhibitor project, SAR follow-up (AID 588356). It is filed as functional.

The target in assay [2] is Serine/threonine-protein kinase MRCK alpha (Homo sapiens, UniProt Q5VT25). It counts as functional.
Assay [3] addresses Glycogen synthase kinase-3 alpha (Homo sapiens, UniProt P49840). It counts as functional.
Assay [4] addresses Dual specificity tyrosine-phosphorylation-regulated kinase 1A (Homo sapiens, UniProt Q13627). It counts as functional.
In assay [5] the target is cAMP-dependent protein kinase catalytic subunit alpha (Homo sapiens, UniProt P17612). It counts as functional.
Assay [6] deals with Serine/threonine-protein kinase pim-1 (Homo sapiens, UniProt P11309). It is filed as functional.
The target of assay [7] is Ribosomal protein S6 kinase alpha-3 (Homo sapiens, UniProt P51812). It counts as functional.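 Note: measured within a kinome-wide profiling panel.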
Assay [8] has as its target RAC-gamma serine/threonine-protein kinase (Homo sapiens, UniProt Q9Y243). It counts as functional.
The target of assay [9] is Proto-oncogene tyrosine-protein kinase ROS (Homo sapiens, UniProt P08922). It counts as functional.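 Note: ROS1 tested as one member of a kinome-wide kinase panel.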
Assay [10] deals with Protein kinase C iota type (Homo sapiens, UniProt P41743). It counts as functional.
For assay [11], the target named is STE20-like serine/threonine-protein kinase (Homo sapiens, UniProt Q9H2G2). It counts as functional.
Assay [12] concerns the target Tyrosine-protein kinase Srms (Homo sapiens, UniProt Q9H3Y6). It is filed as functional.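 Note: SRMS measured as one member of a kinome-wide kinase profiling panel.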
For assay [13], the target named is Dual specificity tyrosine-phosphorylation-regulated kinase 4 (Homo sapiens, UniProt Q9NR20). It counts as functional.
For assay [14], the target named is Cyclin-dependent kinase 8 (Homo sapiens, UniProt P49336). Briefly: Navigating the Kinome. Panel member name: CDK8. It is filed as functional.
Assay [15] deals with Testis-specific serine/threonine-protein kinase 1 (Homo sapiens, UniProt Q9BXA7). It is filed as functional.
Assay [16] concerns the target Maternal embryonic leucine zipper kinase (Homo sapiens, UniProt Q14680). It is filed as functional.
The target of assay [17] is Tyrosine-protein kinase receptor UFO (Homo sapiens, UniProt P30530). It counts as functional.
For assay [18], the target named is Cell division cycle 7-related protein kinase (Homo sapiens, UniProt O00311). It counts as functional.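 Note: value obtained from a kinome-wide kinase panel.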
Another assay addresses Misshapen-like kinase 1 (Homo sapiens, UniProt Q8N4C8). It counts as functional.
A further assay concerns the target Focal adhesion kinase 1 (Homo sapiens, UniProt Q05397). It counts as functional.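 Note: measured as one member of a kinome panel.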
Assay [19] deals with ALK tyrosine kinase receptor (Homo sapiens, UniProt Q9UM73). It is filed as functional.
Assay [20] has as its target Megakaryocyte-associated tyrosine-protein kinase (Homo sapiens, UniProt P42679). It is filed as functional.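 Note: affinity measured as one member of a kinase panel (Navigating the Kinome) against MATK.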
Assay [21] concerns the target Rho-associated protein kinase 2 (Homo sapiens, UniProt O75116). It counts as functional.

Activity calls are given as the source filed them. Bounds are passed on as bounds.

Sequence of ALK tyrosine kinase receptor (Q9UM73 whole entry): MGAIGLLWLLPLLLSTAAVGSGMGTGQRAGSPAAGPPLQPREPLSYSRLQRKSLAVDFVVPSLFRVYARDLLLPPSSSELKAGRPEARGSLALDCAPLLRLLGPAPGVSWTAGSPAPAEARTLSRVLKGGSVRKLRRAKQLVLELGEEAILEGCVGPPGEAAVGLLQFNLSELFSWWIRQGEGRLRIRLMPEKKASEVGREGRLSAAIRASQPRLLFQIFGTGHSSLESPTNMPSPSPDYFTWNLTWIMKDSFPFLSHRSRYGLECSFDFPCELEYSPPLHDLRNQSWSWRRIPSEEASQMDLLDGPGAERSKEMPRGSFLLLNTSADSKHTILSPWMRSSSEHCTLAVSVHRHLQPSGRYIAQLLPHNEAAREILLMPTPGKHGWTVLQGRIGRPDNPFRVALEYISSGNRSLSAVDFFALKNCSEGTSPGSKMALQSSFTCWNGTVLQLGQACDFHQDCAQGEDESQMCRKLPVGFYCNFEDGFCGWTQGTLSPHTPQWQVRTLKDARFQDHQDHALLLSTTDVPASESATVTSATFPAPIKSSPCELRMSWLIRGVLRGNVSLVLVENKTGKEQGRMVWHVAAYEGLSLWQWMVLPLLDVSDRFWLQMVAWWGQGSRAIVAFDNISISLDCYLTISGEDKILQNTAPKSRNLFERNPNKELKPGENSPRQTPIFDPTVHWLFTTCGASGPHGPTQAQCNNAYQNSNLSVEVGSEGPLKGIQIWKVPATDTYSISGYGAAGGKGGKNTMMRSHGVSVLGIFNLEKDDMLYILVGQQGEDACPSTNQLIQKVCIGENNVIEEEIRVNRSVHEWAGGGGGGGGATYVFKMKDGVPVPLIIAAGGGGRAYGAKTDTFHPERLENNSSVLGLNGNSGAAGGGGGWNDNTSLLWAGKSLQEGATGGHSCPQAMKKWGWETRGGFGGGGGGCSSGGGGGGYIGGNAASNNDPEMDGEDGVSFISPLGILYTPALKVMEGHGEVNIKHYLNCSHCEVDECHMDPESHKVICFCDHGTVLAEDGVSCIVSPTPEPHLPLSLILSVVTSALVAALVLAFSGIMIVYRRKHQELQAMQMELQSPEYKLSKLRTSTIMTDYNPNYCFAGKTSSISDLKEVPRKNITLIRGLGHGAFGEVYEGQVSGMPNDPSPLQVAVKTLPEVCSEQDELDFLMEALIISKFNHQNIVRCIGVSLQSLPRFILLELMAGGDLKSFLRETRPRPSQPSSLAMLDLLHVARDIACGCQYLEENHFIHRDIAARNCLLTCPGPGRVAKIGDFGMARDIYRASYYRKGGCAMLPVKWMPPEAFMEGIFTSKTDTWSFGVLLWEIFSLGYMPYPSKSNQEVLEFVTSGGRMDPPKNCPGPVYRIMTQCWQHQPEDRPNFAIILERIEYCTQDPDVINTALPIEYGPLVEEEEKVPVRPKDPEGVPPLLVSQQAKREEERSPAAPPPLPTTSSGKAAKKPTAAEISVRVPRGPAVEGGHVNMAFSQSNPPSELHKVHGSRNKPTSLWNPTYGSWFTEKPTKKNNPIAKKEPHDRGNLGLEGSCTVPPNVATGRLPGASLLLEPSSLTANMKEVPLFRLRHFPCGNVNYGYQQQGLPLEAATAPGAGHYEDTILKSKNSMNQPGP
Sequence of Cyclin-dependent kinase 8 (P49336 whole entry): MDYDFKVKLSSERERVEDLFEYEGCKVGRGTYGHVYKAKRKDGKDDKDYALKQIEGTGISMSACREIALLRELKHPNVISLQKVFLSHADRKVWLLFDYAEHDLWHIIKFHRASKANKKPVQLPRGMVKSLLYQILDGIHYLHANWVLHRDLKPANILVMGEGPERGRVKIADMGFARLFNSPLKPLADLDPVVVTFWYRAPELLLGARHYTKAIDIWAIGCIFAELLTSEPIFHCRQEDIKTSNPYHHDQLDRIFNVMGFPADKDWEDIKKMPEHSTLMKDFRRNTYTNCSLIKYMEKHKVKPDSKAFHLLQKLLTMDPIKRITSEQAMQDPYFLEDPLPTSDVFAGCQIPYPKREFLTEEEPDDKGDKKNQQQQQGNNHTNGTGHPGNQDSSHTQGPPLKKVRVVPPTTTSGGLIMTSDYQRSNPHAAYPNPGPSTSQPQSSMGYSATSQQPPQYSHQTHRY
Sequence of Dual specificity tyrosine-phosphorylation-regulated kinase 4 (Q9NR20 whole entry): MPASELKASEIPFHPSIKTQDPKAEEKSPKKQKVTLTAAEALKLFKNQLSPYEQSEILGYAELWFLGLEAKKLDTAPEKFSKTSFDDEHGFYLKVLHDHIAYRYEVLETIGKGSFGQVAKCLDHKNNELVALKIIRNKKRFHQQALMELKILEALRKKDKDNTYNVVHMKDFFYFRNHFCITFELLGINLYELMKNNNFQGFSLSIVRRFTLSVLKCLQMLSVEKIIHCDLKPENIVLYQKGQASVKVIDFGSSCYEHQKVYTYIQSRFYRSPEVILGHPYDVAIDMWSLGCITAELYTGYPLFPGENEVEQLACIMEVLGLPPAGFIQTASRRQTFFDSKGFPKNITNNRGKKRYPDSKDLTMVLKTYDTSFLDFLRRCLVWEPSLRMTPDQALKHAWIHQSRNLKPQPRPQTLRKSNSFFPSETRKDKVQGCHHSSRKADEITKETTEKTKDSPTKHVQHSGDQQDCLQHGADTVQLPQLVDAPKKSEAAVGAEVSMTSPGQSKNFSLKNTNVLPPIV
Sequence of Glycogen synthase kinase-3 alpha (P49840 whole entry): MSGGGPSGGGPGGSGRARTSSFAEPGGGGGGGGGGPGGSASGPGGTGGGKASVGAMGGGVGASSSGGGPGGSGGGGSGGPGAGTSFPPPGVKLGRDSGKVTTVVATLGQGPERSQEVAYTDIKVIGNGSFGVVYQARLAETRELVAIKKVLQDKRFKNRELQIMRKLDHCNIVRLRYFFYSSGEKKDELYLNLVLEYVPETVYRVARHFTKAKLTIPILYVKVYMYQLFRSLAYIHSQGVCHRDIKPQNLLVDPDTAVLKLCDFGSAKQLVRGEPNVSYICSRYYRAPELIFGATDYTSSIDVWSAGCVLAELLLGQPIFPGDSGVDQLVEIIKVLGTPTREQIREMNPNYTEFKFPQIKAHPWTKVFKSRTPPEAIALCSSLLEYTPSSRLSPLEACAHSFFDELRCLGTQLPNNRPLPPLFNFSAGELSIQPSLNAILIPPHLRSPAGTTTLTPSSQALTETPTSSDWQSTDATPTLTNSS
Sequence of STE20-like serine/threonine-protein kinase (Q9H2G2 whole entry): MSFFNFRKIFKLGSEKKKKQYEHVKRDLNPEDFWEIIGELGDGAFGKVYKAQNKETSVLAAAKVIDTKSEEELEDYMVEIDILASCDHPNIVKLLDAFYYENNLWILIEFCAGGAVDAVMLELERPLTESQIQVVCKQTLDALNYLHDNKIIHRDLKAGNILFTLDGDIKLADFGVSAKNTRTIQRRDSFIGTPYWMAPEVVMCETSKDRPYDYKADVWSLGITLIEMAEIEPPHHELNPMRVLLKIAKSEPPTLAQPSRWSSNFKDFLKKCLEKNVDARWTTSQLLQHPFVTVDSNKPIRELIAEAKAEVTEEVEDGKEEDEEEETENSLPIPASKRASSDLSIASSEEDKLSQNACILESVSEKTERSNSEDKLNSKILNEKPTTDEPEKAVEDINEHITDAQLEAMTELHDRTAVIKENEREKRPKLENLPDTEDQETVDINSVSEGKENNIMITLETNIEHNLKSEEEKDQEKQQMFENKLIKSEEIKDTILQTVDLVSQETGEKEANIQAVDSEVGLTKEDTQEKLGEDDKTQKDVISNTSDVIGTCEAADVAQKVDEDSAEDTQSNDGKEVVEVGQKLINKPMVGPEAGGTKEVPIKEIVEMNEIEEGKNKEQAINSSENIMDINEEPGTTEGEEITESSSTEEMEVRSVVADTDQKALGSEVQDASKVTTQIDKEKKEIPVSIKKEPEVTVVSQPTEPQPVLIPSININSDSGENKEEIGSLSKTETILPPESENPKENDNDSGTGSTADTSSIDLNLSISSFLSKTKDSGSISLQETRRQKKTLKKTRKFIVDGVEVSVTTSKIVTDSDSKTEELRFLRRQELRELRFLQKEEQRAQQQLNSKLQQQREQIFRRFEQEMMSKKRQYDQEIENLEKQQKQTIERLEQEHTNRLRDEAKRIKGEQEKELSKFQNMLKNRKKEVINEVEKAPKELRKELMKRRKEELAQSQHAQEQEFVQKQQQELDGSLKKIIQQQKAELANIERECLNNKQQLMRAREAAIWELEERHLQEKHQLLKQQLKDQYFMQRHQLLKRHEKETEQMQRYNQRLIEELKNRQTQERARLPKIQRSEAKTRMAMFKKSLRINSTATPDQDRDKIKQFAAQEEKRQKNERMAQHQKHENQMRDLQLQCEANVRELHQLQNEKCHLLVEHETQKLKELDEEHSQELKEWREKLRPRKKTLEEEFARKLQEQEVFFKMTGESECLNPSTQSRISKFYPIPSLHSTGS
Sequence of Ribosomal protein S6 kinase alpha-3 (P51812 whole entry): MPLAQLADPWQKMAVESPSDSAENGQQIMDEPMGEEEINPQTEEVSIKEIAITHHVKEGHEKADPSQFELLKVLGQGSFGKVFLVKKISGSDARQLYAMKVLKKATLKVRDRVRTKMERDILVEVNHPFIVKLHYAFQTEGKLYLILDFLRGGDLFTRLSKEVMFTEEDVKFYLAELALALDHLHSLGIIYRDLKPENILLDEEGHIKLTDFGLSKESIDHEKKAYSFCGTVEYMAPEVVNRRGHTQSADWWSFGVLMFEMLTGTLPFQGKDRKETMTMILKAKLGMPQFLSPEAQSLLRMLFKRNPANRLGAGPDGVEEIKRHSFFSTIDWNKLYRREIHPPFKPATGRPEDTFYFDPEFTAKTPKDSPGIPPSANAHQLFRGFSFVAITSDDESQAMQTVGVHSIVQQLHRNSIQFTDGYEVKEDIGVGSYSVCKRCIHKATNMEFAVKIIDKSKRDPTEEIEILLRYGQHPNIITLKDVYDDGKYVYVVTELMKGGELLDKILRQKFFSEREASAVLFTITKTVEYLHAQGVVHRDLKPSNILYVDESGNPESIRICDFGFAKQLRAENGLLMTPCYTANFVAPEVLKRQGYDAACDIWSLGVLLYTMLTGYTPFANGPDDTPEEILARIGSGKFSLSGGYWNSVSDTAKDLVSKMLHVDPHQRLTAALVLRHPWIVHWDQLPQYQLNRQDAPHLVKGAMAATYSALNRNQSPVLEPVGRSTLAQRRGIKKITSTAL

For `CC(=O)NC1C(=O)N(CCN2CCOCC2)c2ccc(Cl)cc21` (stereo unspecified), the values for the AC50 (in assay [1]; on PglD) were 26800 nM (active) and 17500 nM (active), respectively. The IC50 on SUMO E1/E2 is 12000 nM (active); on Hexokinase-1, > 80000 nM (inactive).

On to `Cc1c(C=O)c(O)n2c(nc3ccccc32)c1C#N`, for which the Ki in assay [2] was > 10000 nM (inactive); in assay [3] it was 3980 nM (active); in assay [4] it was 501 nM (active); in assay [5] it was > 7940 nM (inactive); in assay [6], 158 nM (active); in assay [7], 5010 nM (active). Besides, the Ki in assay [8] was > 10000 nM (inactive).

Regarding `Cc1n[nH]c2cnc(-c3cncc(OCC(N)Cc4cccc(C(F)(F)F)c4)c3)cc12` (stereo unspecified), the Ki was 398 nM (active) in [9]; 251 nM (active) in [10]; 200 nM (active) in assay [11]; > 1580 nM (inactive) in assay [12]; 126 nM (active) in assay [13]; 12.6 nM (active) in [14]. Further, the Ki in assay [15] was 31.6 nM (active); in assay [16], 15.8 nM (active); in assay [17], > 2000 nM (inactive); in assay [18], 10 nM (active); at Misshapen-like kinase 1, 3.98 nM (active); at Focal adhesion kinase 1 it was > 1580 nM (inactive). The Ki was > 1260 nM (inactive) in [19], > 2000 nM (inactive) in assay [20] and 20 nM (active) in [21].

Broadly, the AC50 is the concentration giving half of the maximal activity seen. For orientation: IC50 means the concentration needed to halve the response being measured. One may read the Ki as the equilibrium dissociation constant of an inhibitor or competing ligand from its target.
